pKd: −log10 of the molar value.
Legend:
huAR = huAR (Homo sapiens, UniProt P10275); experiment: Competition binding assay on cells, human AR
Protocol: (§1) The KD for subfamily 3 group C nuclear hormone receptors was determined on cells by displacing ^3H-steroidal agonists for the respective receptor. […].
(§2) The cold ligands and ^3H-steroids were co-incubated on cells in PBS at room temperature for one hour. Following incubation, the cells were washed twice with ice cold PBS and the unbound activity was retained for analysis. The cells were lysed with 1 mL of 1 M NaOH and collected. Bound and unbound fractions were counted in a liquid scintillation counter and expressed as a percentage of the total activity added per equal relative number of cells. […]. The specific binding component was plotted against the log of the competing ligand and curve fit using a non-linear regression algorithm with PRISM software.

huER = target: T1, huER (Homo sapiens, UniProt P03372); experiment: Competition binding assay on cells, human ER; details: MCF7 cells, displacing 3H-estradiol
T1 construct: DU145 (GR), LNCaP-AR (AR), MCF7 (PR, ER), GL261 (mouse GR), and 9L (rat GR); endogenous in cells; host or cells: MCF7
T1 sequence (P03372 1-595): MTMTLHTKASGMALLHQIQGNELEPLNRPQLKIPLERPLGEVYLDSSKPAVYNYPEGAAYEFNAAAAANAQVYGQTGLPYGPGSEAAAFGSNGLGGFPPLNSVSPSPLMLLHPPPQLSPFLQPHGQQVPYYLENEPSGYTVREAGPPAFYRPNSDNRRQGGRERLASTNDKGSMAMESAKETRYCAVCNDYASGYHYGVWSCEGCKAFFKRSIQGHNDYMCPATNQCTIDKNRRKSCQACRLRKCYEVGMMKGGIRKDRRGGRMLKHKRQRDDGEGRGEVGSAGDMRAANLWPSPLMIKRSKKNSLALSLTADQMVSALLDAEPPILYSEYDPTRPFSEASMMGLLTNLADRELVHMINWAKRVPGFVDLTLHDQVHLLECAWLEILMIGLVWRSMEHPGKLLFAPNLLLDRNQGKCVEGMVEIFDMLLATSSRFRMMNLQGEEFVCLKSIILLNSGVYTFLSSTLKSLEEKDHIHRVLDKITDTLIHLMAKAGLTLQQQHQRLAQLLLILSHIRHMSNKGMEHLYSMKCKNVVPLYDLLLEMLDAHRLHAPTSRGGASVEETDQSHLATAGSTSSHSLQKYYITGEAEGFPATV

mouse GR = target: T2, mouse GR (Mus musculus, UniProt P06537); experiment: Competition binding assay on cells, mouse GR; details: GL261 cells, displacing 3H-dexamethasone; read-out: KD msGR
T2 construct: endogenous in cells; host or cells: GL261
T2 sequence (P06537 1-792): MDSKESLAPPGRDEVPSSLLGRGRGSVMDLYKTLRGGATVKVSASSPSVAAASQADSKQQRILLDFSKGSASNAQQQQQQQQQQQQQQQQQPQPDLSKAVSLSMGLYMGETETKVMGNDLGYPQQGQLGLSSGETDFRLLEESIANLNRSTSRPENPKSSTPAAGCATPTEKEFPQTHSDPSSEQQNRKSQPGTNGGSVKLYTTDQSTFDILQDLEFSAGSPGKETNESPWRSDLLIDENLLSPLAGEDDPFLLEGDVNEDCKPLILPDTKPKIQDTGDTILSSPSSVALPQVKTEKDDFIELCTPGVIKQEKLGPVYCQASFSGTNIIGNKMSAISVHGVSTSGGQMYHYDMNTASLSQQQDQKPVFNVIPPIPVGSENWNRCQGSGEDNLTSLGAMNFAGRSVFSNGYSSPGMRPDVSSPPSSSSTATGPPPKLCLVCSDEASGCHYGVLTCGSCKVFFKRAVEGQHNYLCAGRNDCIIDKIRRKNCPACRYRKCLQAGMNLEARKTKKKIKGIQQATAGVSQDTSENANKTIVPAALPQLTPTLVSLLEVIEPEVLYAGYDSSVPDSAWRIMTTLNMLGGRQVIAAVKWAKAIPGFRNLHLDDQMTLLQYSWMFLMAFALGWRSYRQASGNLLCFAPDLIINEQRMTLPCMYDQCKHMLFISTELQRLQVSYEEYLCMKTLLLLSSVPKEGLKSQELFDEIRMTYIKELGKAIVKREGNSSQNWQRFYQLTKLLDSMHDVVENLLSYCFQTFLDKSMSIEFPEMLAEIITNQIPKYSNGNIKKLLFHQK
Protocol: as §1, §2

rat GR = target: T3, rat GR (Rattus norvegicus, UniProt P06536); experiment: Competition binding assay on cells, rat GR; details: 9L cells, displacing 3H-dexamethasone; read-out: KD rtGR
T3 construct: endogenous in cells; host or cells: 9L
T3 sequence (P06536 1-795): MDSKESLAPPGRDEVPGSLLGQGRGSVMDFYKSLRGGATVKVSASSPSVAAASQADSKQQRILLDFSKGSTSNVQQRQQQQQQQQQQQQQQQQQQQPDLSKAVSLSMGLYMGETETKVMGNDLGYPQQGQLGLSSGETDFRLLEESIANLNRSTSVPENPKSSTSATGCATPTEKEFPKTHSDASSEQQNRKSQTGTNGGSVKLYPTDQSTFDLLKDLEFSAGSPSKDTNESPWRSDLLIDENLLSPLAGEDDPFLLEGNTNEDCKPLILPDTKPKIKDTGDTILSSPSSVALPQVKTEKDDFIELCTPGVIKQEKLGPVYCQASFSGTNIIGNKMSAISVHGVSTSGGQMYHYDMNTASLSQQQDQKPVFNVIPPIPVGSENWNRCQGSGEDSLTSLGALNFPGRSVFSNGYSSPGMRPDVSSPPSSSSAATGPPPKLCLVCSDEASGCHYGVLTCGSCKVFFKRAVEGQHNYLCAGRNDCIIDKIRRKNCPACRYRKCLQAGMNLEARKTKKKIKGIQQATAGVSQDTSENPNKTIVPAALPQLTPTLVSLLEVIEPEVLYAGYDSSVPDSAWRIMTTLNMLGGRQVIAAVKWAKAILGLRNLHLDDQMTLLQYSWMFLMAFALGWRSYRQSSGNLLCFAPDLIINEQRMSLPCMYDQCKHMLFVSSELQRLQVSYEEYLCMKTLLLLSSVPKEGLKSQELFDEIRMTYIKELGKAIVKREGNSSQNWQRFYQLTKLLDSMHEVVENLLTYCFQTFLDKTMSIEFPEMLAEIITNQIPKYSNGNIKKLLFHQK
Protocol: as §1, §2

[1] = Log P determination (octanol:water); type: physicochemical; details: octanol:water 1:1 v/v
Protocol: To a microcentrifuge tube containing 1 mL of octanol:water (1:1 v/v) was added 50 μL of ^18F-GR02 (total activity = 37 MBq). The solution was vortexed vigorously for 30 sec, and the biphasic layers were allowed to separate. The layers were manually pipetted into new microcentrifuge tubes, and the activity of each fraction was read with a dose calibrator. The water fraction contained 1.7 MBq, and the octanol fraction contained 35.3 MBq.

huAR, sequence (P10275 whole entry): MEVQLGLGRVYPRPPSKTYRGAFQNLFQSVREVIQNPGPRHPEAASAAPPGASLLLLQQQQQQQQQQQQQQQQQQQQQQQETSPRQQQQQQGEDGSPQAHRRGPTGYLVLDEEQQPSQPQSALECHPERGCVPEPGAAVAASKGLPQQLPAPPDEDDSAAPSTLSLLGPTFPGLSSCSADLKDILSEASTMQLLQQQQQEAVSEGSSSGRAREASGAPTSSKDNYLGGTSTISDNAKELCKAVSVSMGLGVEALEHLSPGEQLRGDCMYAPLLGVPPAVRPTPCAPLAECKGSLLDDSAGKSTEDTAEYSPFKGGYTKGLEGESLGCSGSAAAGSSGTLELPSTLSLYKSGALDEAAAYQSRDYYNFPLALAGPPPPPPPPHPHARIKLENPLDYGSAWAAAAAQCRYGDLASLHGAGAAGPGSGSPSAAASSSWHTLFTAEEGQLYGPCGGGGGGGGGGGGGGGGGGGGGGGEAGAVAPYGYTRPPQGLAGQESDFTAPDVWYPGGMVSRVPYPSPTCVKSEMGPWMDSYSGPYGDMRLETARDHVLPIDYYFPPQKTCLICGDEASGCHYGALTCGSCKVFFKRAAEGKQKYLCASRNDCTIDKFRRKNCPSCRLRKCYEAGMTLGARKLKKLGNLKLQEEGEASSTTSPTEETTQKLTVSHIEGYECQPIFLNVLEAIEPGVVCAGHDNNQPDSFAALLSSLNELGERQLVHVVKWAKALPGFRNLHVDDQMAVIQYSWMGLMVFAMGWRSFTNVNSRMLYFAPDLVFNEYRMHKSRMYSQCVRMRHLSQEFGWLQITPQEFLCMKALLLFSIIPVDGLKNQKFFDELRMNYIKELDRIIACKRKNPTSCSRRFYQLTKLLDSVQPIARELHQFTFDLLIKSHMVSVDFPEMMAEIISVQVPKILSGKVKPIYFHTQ

Row | SMILES | pKd (huAR) | pKd (huER) | pKd (mouse GR) | pKd (rat GR) | logP [1]
1 | C[C@]12C=CC(=O)C=C1CCC1C2[C@@H](O)C[C@@]2(C)C1CC[C@]2(O)C(=O)COCCCF (stereo partly shown) [GR01] | 5.84 | 6.01 | – | – | –
2 | C[C@]12C=CC(=O)C=C1CCC1C2[C@@H](O)C[C@@]2(C)C1CC[C@]2(O)C(=O)CNC(=O)c1ccc(F)cc1 (stereo partly shown) [GR02] | 5.90 | 4.68 | 8.17 | 8.21 | 1.33
